Patent publication US7947280B2 (priority 2003, dated 2011)
Entries after “also recorded” stand apart in the source; their conditions may differ.

Key:
[1] = test system: C57B/16 mice; test: Magnetic resonance imaging after intraperitoneal apelin-12 injection; assay type: in vivo, mouse; settings: post apelin-12 300 μg/kg intraperitoneal, one hour prior to scanning; n=9
Description: Magnetic resonance imaging. […] Platinum needle ECG leads were inserted subcutaneously. Respiration was monitored by means of a pneumatic pillow sensor positioned against the abdomen. Mouse body temperature was maintained during scanning at 37° C. by a flow of heated air thermostatically controlled by a rectal temperature probe. Magnetic resonance images were acquired on a 4.7T Oxford magnet controlled by a Varian Inova console (Varian, Palo Alto, Calif.) using a transmit-receive, quadrature, volume coil with an inner diameter of 3.5 cm. Image acquisition was gated to respiration and to the ECG R wave (SA Instruments, Stony Brook, N.Y.). Coronal and sagittal scout images led to the acquisition of multiple contiguous 1 mm thick, short axis slices orthogonal to the interventricular septum. […] Planimetry measurements of end diastolic and end systolic dimension were derived offline from short axis views of the left ventricle at the level of the papillary muscles using ImageJ software (National Institutes of Health, Bethesda, Md.). Ejection fraction was calculated as [[…]. Data Analysis. […] Exact p values are reported for all comparisons.

[2] = target: T1, APJ (Homo sapiens, UniProt P35414); settings: cited from earlier work
T1 sequence (P35414 1-380): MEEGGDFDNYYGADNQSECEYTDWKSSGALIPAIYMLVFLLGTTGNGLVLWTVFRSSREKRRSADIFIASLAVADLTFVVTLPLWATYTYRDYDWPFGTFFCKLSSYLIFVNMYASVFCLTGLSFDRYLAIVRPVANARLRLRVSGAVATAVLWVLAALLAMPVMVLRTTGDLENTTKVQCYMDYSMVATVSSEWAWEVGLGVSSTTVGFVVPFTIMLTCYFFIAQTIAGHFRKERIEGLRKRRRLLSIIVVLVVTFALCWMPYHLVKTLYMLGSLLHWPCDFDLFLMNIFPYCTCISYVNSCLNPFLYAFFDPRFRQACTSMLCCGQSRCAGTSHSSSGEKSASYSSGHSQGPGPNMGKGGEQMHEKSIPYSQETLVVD

[3] = test system: superoxide production in aortic tissue of apoE knockout mice; test: Lucigenin-enhanced chemiluminescence of aortic superoxide; assay type: in vivo, mouse
Description: Lucigenin-enhanced chemiluminescence. Total aortic superoxide was measured by lucigenin-enhanced chemiluminescence as described previously. Aortas were harvested flushed with Krebs-HEPES buffer, opened longitudinally and divided into halves. Vessels were gassed with 95% oxygen/5% carbon dioxide in warmed Krebs-HEPES buffer for 30 minutes before measurements of chemiluminescence in a luminometer (manufacturer, location) using 20 μmol/L lucigenin. One half of each vessel was incubated in L-NAME (1 mmol/L). After measuring baseline readings for 4 minutes, samples were equilibrated and dark adapted for 5 mins, and chemiluminescence was recorded for 10 minutes. Recordings were performed blinded to the samples identity. Results were expressed as counts per second per milligram of tissue dry weight.

[4] = test system: superoxide production in aortic sections; test: Dihydroethidium oxidative fluorescence microtopography; assay type: in vivo, mouse
Description: Oxidative fluorescent microtopography. Superoxide was detected in the layers of the vessel wall using fluorescent probe dihydroethidium as described previously. Fresh segments of upper descending thoracic aorta were frozen in OCT compound. […] Molecular Probes). Images were obtained on a confocal microscope (Bio-Rad MRC-1024 laser; filter settings: excitation filter 488 nm; emission filter 550 nm). 2-hydroxyethidium fluorescence was measured from high power (60× mag) images. Endothelium by quantifying fluorescence (intensity×area) on the luminal side of the internal elastic lamina, media between the internal and external elastic lamina, and adventitia outside the external elastic lamina. Quantification was performed using Image Pro Plus software (Media Cybernetics, Silver Springs, Md.). Medial Analysis was performed blind to the samples identity.

[5] = test system: AT1R and APJ heterodimerization; test: AT1R-APJ receptor heterodimerization by immunoprecipitation; assay type: cell-based; settings: AngII, 1 and 6 hours of treatment; co-transfected cells
Description: (§1) Cells were immediately lysed.
Immunoprecipitation and Western Blotting Immunoprecipitation was performed as previously described (REF). In brief, cells were lysed using 10× Cell Lysis Buffer (Cell Signaling Technologies CITY). Lysates were precleared with protein G and immunoprecipitation was performed with the respective antibodies at concentration of 1 mg/mL for 24 hrs at 4C. Protein G agarose was added and incubated for additional 2 hours. Western blotting on SDS-PAGE gels were performed as previously described, and the bands were visualized using the enhanced chemiluminescence system (Amersham Biosciences).

[6] = test system: ApoE-KO mice; test: AngII induced abdominal aortic aneurysm formation model; assay type: in vivo, mouse
Description: (§2) Animals. Mice were maintained in temperature-controlled (20° C. to 22° C.) environment with a 12-hour light-dark cycle. Sterile water and standard chow diet were available ad libitum. All mice were C57BL/6J ApoE-KO male mice (Jackson Laboratories, Bar Harbor, […].) between the ages of 8-12 weeks. […] Animal procedures were carried out in accordance with the Institutional Review Board Guidelines at Stanford University.
Abdominal aortic aneurysm formation, sudden death and vein graft procedure. […] Abdominal aortic aneurysm was defined as ≧50% enlargement of the maximal abdominal aorta diameter. Mice that were found dead without any preceding signs of suffering were defined as sudden death.

[7] = target: T2, AT1R (Rattus norvegicus, UniProt P25095); test: Competitive ligand binding with FAM-labeled AngII in HEK-293 cells; settings: unlabeled ligand 100 nM; HEK-293 cells transfected with AT1R
T2 construct: expressed in transfected cells; host or cells: HEK-293
T2 sequence (P25095 1-359): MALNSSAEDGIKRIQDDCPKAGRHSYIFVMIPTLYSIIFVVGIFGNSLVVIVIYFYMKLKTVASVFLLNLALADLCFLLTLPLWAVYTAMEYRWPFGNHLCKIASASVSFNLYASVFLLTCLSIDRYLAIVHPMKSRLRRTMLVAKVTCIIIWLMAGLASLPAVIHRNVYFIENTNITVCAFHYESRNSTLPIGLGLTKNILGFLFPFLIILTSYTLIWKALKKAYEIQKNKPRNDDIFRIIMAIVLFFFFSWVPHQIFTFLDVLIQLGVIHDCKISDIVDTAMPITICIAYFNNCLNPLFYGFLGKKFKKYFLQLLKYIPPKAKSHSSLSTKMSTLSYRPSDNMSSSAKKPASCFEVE

[8] = test system: NFκB, NFAT, AP-1 and SRE reporter constructs; test: Luciferase reporter assays of AngII nuclear signaling in HEK-293 cells; assay type: cell-based; settings: HEK-293 cells co-transfected with AT1; AngII stimulation
From the text: cDNA Constructs APJ expression construct was purchased from cDNA.org. AT1R construct was obtained from Dr. Marc Caron. AT1R transcript was inserted into a pEGFP-N1 vector (Clonetech). The NF-kB and SRE luciferase reporter constructs were obtained from BD Biosciences.
as §1

[9] = target: T1, APJ; settings: cited from earlier work; remark: listed apart in the source
[10] = test system: ApoE-KO mice; test: Vein graft neointimal hyperplasia model; assay type: in vivo, mouse; settings: AngII infusion
Description: as §2

[11] = test system: ApoE-KO mice; test: Atherosclerotic lesion analysis in ApoE-KO mice; assay type: in vivo, mouse
Description: as §2, with “Sterile water and standard chow diet were available ad libitum.” left out
Tissue preparation, histology and lesion quantification. Mice were euthanized 28 days following implantation of osmotic mini-pumps. The thoracic cage was removed and the animal perfused with phosphate buffered saline solution (PBS) for 2 minutes. The entire aorta and vein graft were exposed and the periadventitial tissue and scar tissue dissected and removed. Subsequently mice were perfusion fixed in situ with 4% phosphate-buffered paraformaldehyde. In some animals aorta and lung were removed fresh for biochemical assays.
Atherosclerotic Lesion Analysis Atherosclerosis lesion area was determined as described previously. Briefly, the arterial tree was perfused with PBS (pH 7.3) and then perfusion fixed with phosphate-buffered paraformaldehyde (3%, pH 7.3). The heart and full length of the aorta-to-iliac bifurcation was exposed and dissected carefully from any surrounding tissues. Aortas were then opened along the ventral midline and dissected free of the animal and pinned out flat, intimal side up, onto black wax. Aortic images were captured with a digital camera (DMC1) mounted on a Leica MZ6 stereomicroscope and analyzed using Fovea Pro (Reindeer Graphics, Asheville, N.C.). Percent lesion area was calculated as total lesion area divided by total surface area.

## H-Arg-Pro-Arg-Leu-Ser-His-Lys-Gly-Pro-Met-Pro-Phe-OH [apelin-12]
[1]
  Ejection fraction: upward trend
  heart rate (inverse of R-R interval of electrocardiogram): significant increase
  left ventricular end diastolic area: significant reduction; also recorded: significantly decreased
[2]
  activation of APJ: activate APJ

## COC(=O)[C@@H](N)CCCNC(=N)N[N+](=O)[O-] [L-NAME]
[3]; aorta from apelin treated mice, L-NAME 1 mmol/L
  increase in total superoxide production on incubation with L-NAME: 2 fold
[3]; aorta from saline, AngII or AngII+apelin treated animals, L-NAME 1 mmol/L
  total superoxide levels on incubation with L-NAME: not significantly different

## apelin-17
[2]
  activation of APJ: activate APJ

## H-Leu-Val-Gln-Pro-Arg-Gly-Ser-Arg-Asn-Gly-Pro-Gly-Pro-Trp-Gln-Gly-Gly-Arg Arg-Lys-Phe-Arg-Arg-Gln-Arg-Pro-Arg-Leu-Ser-His-Lys-Gly-Pro-Met-Pro-Phe-OH (H-LVQPRGSRNGPGPWQGGRRKFRRQRPRLSHKGPMPF-OH; listed as Homo sapiens) [apelin-36]
[2]
  activation of APJ: activate APJ

## COc1cc(C(C)=O)ccc1O [apocynain]
[4]; aortic sections from apelin treated mice
  total medial fluorescence after incubation with NADPH oxidase inhibitor: did not find this effect
[4]; aortic sections from saline, AngII and apelin+AngII treated mice, 50 μmol/l
  total medial fluorescence after incubation with NADPH oxidase inhibitor: dramatically reduced; also recorded: blocked

## angiotensin II (DRVYIHPF) [AngII, peptide infused to promote vascular disease and heart failure; AT1R ligand, reference compound]
[5]
  AT1R-APJ receptor heterodimerization: significantly enhanced
[6]; AngII for four weeks
  animals with aneurysm formation: 11/12
[6]; single agent infusion
  incidence of AAA formation within 4 weeks: 92%
[7]
  competition for binding of FAM-AngII (10 nM) to AT1R: competes
[8]
  reporter transcription (NFκB, NFAT, AP-1, SRE): significant increase
[9]
  binding to APJ: does not bind
[3]; AngII infusion
  increase in total chemiluminescence (superoxide): 10 fold
[10]
  increase of vein graft wall area vs saline treated controls: 33%
[11]; AngII 1.4 mg/kg/day, 4 week minipump infusion
  increase of descending aorta atherosclerosis vs saline treated controls: 82%
[11]; osmotic minipump during high fat diet exposure
  progression of atherosclerosis in aortic root (FIG. 17): do not alter
